In patent US11999746B2, “Compounds” (GlaxoSmithKline Intellectual Property Development Limited, priority 2014, dated 2024):

Key:
[1] = molecular target: T1, recombinant human Lp-PLA2 (Homo sapiens, UniProt Q13093); assay: (1a) PED6 assay, recombinant human Lp-PLA2 (rhLp-PLA2); assay type: biochemical; details: Examples 1-167 and 413-430 were tested here, one experiment or average of multiple experiments, read-out: rhLp-PLA2 (pIC50) (converted)
T1 sequence (Q13093 22-441): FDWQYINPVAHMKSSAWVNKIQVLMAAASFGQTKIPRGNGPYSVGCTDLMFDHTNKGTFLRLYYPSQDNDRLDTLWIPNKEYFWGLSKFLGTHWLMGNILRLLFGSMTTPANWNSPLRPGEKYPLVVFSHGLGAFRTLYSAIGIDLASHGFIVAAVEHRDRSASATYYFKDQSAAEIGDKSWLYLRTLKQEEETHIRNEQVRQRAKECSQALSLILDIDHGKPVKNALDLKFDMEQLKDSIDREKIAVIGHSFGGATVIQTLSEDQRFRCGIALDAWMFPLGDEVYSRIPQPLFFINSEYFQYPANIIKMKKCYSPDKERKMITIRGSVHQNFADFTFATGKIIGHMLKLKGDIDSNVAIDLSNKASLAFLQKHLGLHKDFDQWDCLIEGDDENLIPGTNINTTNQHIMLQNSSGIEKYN
Method in brief: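 PED6 (2 μM final after 1:1 addition of 4 μM stock) cleavage by rhLp-PLA2 (4 nM working solution) in 50 mM HEPES pH 7.4, 150 mM NaCl, 1 mM CHAPS; compounds preincubated with enzyme 30 minutes, reaction 20 min at room temperature. Fluorescence at ex 480/em 540; pIC50 from curve fit.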

Lp-PLA2 in human plasma = molecular target: T2, Lp-PLA2 in human plasma (Homo sapiens, UniProt Q13093); assay: (3a) Lp-PLA2 human plasma Thio-PAF assay; assay type: biochemical; details: (3a) Thio-PAF assay, pooled human plasma; Examples 1-265 and 413-430 were tested here; read-out: pIC50 in the Lp-PLA2 human plasma assay (converted)
T2 construct: from tissue; host or cells: pooled human plasma
T2 sequence (Q13093 22-441): T1 sequence (Q13093 22-441)
Method in brief: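 Pooled human plasma preincubated 30 min with serially diluted compound, then given 2-thio-PAF substrate with CPM and NEM in 50 mM HEPES pH 7.4, 150 mM NaCl, 1 mM CHAPS. Reaction quenched with TFA after 2 min; CPM thiol-adduct fluorescence read at ex 380/em 485 after 40 min; pIC50 reported.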

Row | Structure (SMILES) | IC50 [1] | IC50 (Lp-PLA2 in human plasma)
1 | Cn1cc(Oc2ccc(COc3cc4n(c(=O)n3)C[C@H]3CCCN43)cc2F)cn1 [Example E68, (R)-3-((3-fluoro-4-((1-methyl-1H-pyrazol-4-yl)oxy)benzyl)oxy)-7,8,8a, 9-tetrahydro pyrrolo[1′,2′:3,4]imidazo[1,2-c]pyrimidin-1(6H)-one] | ≤ 100 nM | ≤ 10 µM
2 | O=c1nc(OCc2cc(F)c(F)c(F)c2)cc2n1C[C@H]1CCCCN21 [Example E54, (R)-3-((3,4,5-Trifluorobenzyl)oxy)-6,7,8,9,9a,10-hexahydro-1H-pyrido[1′,2′:3,4]imidazo[1,2-c]pyrimidin-1-one] | ≤ 100 nM | ≤ 0.1 µM
3 | CN1c2cc(OCc3cc(F)c(F)c(F)c3)nc(=O)n2CC12CCCC2 [Example 414, 1′-methyl-7′-((3,4,5-trifluorobenzyl)oxy)-1′H-spiro[cyclopentane-1,2′-imidazo[1,2-c]pyrimidin]-5′(3′H)-one] | ≤ 100 nM | ≤ 0.1 µM
4 | O=c1nc(OCc2cc(F)c(Oc3ccnc(C(F)(F)F)c3)c(F)c2)cc2n1CC1CCCCN21 (centres unmarked) [Example E37, 3-((3,5-difluoro-4-((2-(trifluoromethyl)pyridin-4-yl)oxy)benzyl)oxy)-6,7,8,9,9a,10-hexahydro-1H-pyrido[1′,2′:3,4]imidazo[1,2-c]pyrimidin-1-one] | ≤ 1 nM | ≤ 0.1 µM
5 | O=c1nc(OCc2cc(F)c(OC3CCCC(F)(F)C3)c(F)c2)cc2n1C[C@@H]1CCCN21 (stereo partly drawn) [Example E93, (S)-3-((4-((3,3-difluorocyclohexyl)oxy)-3,5-difluorobenzyl)oxy)-7,8,8a,9-tetrahydropyrrolo[1′,2′:3,4]imidazo[1,2-c]pyrimidin-1(6H)-one] | ≤ 100 nM | ≤ 10 µM
6 | O=c1nc(OCc2ccc(Oc3ccc(F)c(F)c3)c(F)c2)cc2n1CC1CCCCN21 (centres unmarked) [Example E18, 3-((4-(3,4-Difluorophenoxy)-3-fluorobenzyl)oxy)-6,7,8,9,9a,10-hexahydro-1H-pyrido[1′,2′:3,4]imidazo[1,2-c]pyrimidin-1-one] | ≤ 100 nM | ≤ 10 µM
7 | CN1c2cc(OCc3cccc(F)c3)nc(=O)n2CC12CCCCC2 [Example 417] | ≤ 100 nM | ≤ 10 µM
8 | O=c1nc(OCc2ccc(Oc3ccc(F)c(C(F)(F)F)c3)nc2)cc2n1C[C@@H]1CCCN21 [Example E84, (S)-3-((6-(4-fluoro-3-(trifluoromethyl)phenoxy)pyridin-3-yl)methoxy)-7,8,8a,9-tetrahydro pyrrolo[1′,2′:3,4]imidazo[1,2-c]pyrimidin-1(6H)-one] | ≤ 100 nM | ≤ 10 µM
9 | O=c1nc(OCc2ccc(Oc3cnc(C(F)(F)F)nc3)c(F)c2)cc2n1C[C@H]1CCCN21 [Example E69, (R)-3-((3-fluoro-4-((2-(trifluoromethyl)pyrimidin-5-yl)oxy)benzyl)oxy)-7,8,8a, 9-tetra hydropyrrolo[1′,2′:3,4]imidazo[1,2-c]pyrimidin-1(6H)-one] | ≤ 100 nM | ≤ 0.1 µM
10 | O=c1nc(OCc2ccc(F)cc2F)cc2n1C[C@H]1CCCN21 [Example E100, (R)-3-((2,4-difluorobenzyl)oxy)-7,8,8a,9-tetrahydropyrrolo[1,2′:3,4]imidazo[1,2-c] pyrimidin-1(6H)-one] | ≤ 100 nM | ≤ 10 µM
11 | O=c1nc(OCc2cc(F)c(OC3CN(CCC(F)(F)F)C3)c(F)c2)cc2n1CC1CCCN21 (centres unmarked) [Example E96, 3-((3,5-Difluoro-4-((1-(3,3,3-trifluoropropyl)azetidin-3-yl)oxy)benzyl)oxy)-7,8,8a,9-tetrahy dropyrrolo[1′,2′:3,4]imidazo[1,2-c]pyrimidin-1(6H)-one] | ≤ 100 nM | ≤ 10 µM
12 | CN1c2cc(OCc3cc(F)c(F)cc3F)nc(=O)n2CC12CCCC2 [Example 415, 1-methyl-7′-((2,4,5-trifluorobenzyl)oxy)-1′H-spiro[cyclopentane-1,2′-imidazo[1,2-c]pyrimidin]-5′(3′H)-one] | ≤ 100 nM | ≤ 10 µM
13 | O=c1nc(OCc2cc(F)c(Oc3cncc(C(F)(F)F)c3)c(F)c2)cc2n1CC1CCCCN21 (centres unmarked) [Example E21, 3-((3,5-Difluoro-4-((5-(trifluoromethyl)pyridin-3-yl)oxy)benzyl)oxy)-6,7,8,9,9a,10-hexahydro-1H-pyrido[1′,2′:3,4]imidazo[1,2-c]pyrimidin-1-one] | ≤ 1 nM | ≤ 0.1 µM
14 | O=c1nc(OCc2cc(F)c(Oc3ccnc(C(F)(F)F)c3)c(F)c2)cc2n1CC1CCCCN21 (centres unmarked) [Example E45, 3-((3,5-Difluoro-4-((2-(trifluoromethyl)pyridin-4-yl)oxy)benzyl)oxy)-6,7,8,9,9a,10-hexahydro-1H-pyrido[1′,2′:3,4]imidazo[1,2-c]pyrimidin-1-one] | ≤ 1 nM | ≤ 0.1 µM

Continued, values first:

Row | IC50 [1] | IC50 (Lp-PLA2 in human plasma) | Structure (SMILES)
15 | 0.501 nM | ≤ 0.1 µM | Cc1cc(Oc2c(F)cc(COc3cc4n(c(=O)n3)C[C@H]3COCCN43)cc2F)ccn1 [Example E124, (S)-7-((3,5-difluoro-4-((2-methylpyridin-4-yl)oxy)benzyl)oxy)-3,4,11,11atetrahydropyrimido[6′,1′:2,3]imidazo[5,1-c][1,4]oxazin-9(1H)-one]
16 | ≤ 100 nM | ≤ 10 µM | O=c1nc(NCc2cccc(F)c2)cc2n1C[C@H]1CCCN21 [Example E104, (R)-3-((3-fluorobenzyl)amino)-7,8,8a,9-tetrahydropyrrolo[1′,2′:3,4]imidazo[1,2-c]pyrimidin-1(6H)-one]
17 | ≤ 100 nM | ≤ 10 µM | CCn1cc(Oc2c(F)cc(COc3cc4n(c(=O)n3)C[C@@H]3COCCN43)cc2F)cn1 [Example E121, (R)-7-((4-((1-ethyl-1H-pyrazol-4-yl)oxy)-3,5-difluorobenzyl)oxy)-3,4,11,11a-tetrahydropyrimido[6′,1′:2,3]imidazo[5,1-c][1,4]oxazin-9(1H)-one]
18 | 1.26 nM | ≤ 0.1 µM | CCn1cc(Oc2c(F)cc(COc3cc4n(c(=O)n3)CC3COCCN43)cc2F)cn1 (centres unmarked) [Example E109, 7-((4-((1-Ethyl-1H-pyrazol-4-yl)oxy)-3,5-difluorobenzyl)oxy)-3,4,11,11a-tetrahydropyrimido[6′,1′:2,3]imidazo[5,1-c][1,4]oxazin-9(1H)-one]
19 | ≤ 100 nM | ≤ 10 µM | O=c1nc(OCc2cc(F)cc(F)c2)cc2n1C[C@@H]1COCCN21 [Example E133, (R)-7-((3,5-difluorobenzyl)oxy)-3,4,11,11a-tetrahydropyrimido[6′,1′:2,3]imidazo[5,1-c][1,4] oxazin-9(1H)-one]
20 | ≤ 100 nM | ≤ 10 µM | O=c1nc(OCc2cc(F)cc(F)c2)cc2n1C[C@H]1CCCN21 [Example E103, (R)-3-((3,5-difluorobenzyl)oxy)-7,8,8a,9-tetrahydropyrrolo[1,2′:3,4]imidazo[1,2-c] pyrimidin-1(6H)-one]
21 | ≤ 1 nM | ≤ 0.1 µM | O=c1nc(OCc2cc(F)c(Oc3cnn(C(F)(F)F)c3)c(F)c2)cc2n1C[C@@H]1COCN21 [Example E154, (R)-6-((3,5-difluoro-4-((1-(trifluoromethyl)-1H-pyrazol-4-yl)oxy)benzyl)oxy)-10,10a-dihydro-1H-oxazolo[3′,4′:3,4]imidazo[1,2-c]pyrimidin-8(3H)-one]
22 | ≤ 100 nM | ≤ 10 µM | Cc1cc(Oc2c(F)cc(COc3cc4n(c(=O)n3)C[C@H]3CCCN43)cc2F)ccn1 [Example E106, (R)-3-((3,5-difluoro-4-((2-methylpyridin-4-yl)oxy)benzyl)oxy)-7,8,8a,9-tetrahydro pyrrolo[1′,2′:3,4]imidazo[1,2-c]pyrimidin-1(6H)-one]
23 | ≤ 100 nM | ≤ 10 µM | Cn1cc(Oc2c(F)cc(COc3cc4n(c(=O)n3)C[C@@H]3CCOCN43)cc2F)cn1 [Example E136, (S)-3-((3,5-difluoro-4-((1-methyl-1H-pyrazol-4-yl)oxy)benzyl)oxy)-8,9,9a,10-tetrahydropyrimdo[6′,1′:2,3]imidazo[1,5-c][1,3]oxazin-1(6H)-one]
24 | ≤ 100 nM | ≤ 10 µM | O=c1nc(OCc2cc(F)c(OC3(CCF)CC3)c(F)c2)cc2n1C[C@H]1CCCN21 [Example E105, (R)-3-((3,5-difluoro-4-(1-(2-fluoroethyl)cyclopropoxy)benzyl)oxy)-7,8,8a,9-tetrahydro pyrrolo[1′,2′:3,4]imidazo[1,2-c]pyrimidin-1(6H)-one]
25 | ≤ 100 nM | ≤ 10 µM | Cc1cc(Oc2c(F)cc(COc3cc4n(c(=O)n3)C[C@@H]3COCN43)cc2F)ccn1 [Example E155, (R)-6-((3,5-difluoro-4-((2-methylpyridin-4-yl)oxy)benzyl)oxy)-10,10a-dihydro-1H-oxazolo[3′,4′:3,4]imidazo[1,2-c]pyrimidin-8(3H)-one]
